Data published in article PMC4738272 (Scientific Reports, 2016).
Where “and” joins values, the source holds several entries; their conditions need not be identical. Identical values can stand only once. Entries after “also recorded” stand apart in the source; their conditions may differ.

Legend:
HepG2/C3A [1] = test: Urea quantification, liver fraction of 4-organ system; type: cell-based, human; settings: 4-organ co-culture under flow, 48 h drug treatment, vs control
neurons [2] = test: Neuron electrophysiology recording (patch clamp); type: cell-based, human; settings: 4-organ co-culture under flow, 48 h drug treatment, day 7, vs control, DOX 5 μM, ATR 100 μM, APAP 5 mM, AMAP 5 mM; for Neuronal electrophysiology, overall effect: VPA 2 mM
From the text: Electrophysiological properties of neuron cultures where recorded on the last day of co-culture following a previously described method. Values of firing, repetitive firing, spontaneous firing, inward sodium current, outward potassium current, action potential peak voltage and the resting membrane potential, characterized the mature functionality of neurons in the in vitro system. Drug alterations of the neuronal electrophysiology are discussed in this manuscript.

Neurons [3] = test system: Neurons; parameters: method as in Literature; settings: general toxic effects reported in the literature; ref Literature; cited from earlier work
HepG2/C3A [4] = test: MTT viability of liver module in 4-organ system; type: cell-based, human; settings: 4-organ co-culture under flow, serum-free medium, 48 h drug treatment, day 7, vs control, DOX 5 μM, ATR 100 μM, VPA 2 mM, APAP 5 mM, AMAP 5 mM
From the text: (§1) The four organ in vitro systems were assembled, on day 0, by placing the corresponding surfaces cell side up in a specific chamber of the housing (liver coverslip into chamber 1, cardiac coverslips and cantilevers into chambers 2 and 4, muscle coverslips into chamber 5, and neuron coverslips into chamber 3 and they were then topped with the serum-free co-culture medium (1X Neurobasal Medium, 1X B27, 1X AB/AM, 1X Glutamax (all from Life Technologies)) before locking the system. Right after assembling, the medium was completely replaced with 4 mL of the co-culture defined serum-free medium and the systems placed on a rocking platform inside an incubator. Platforms were checked every day by inspecting for expected cell morphology inside the system and by replacing medium (1.2 mL total volume) from the two reservoirs (30% of the total volume was replaced) with fresh medium. Drug incubation was initiated on day 5 of the co-culture by addition of the drug through the reservoir closer to the liver chamber (no. 1), allowing a first contact of the drug with the liver. 20 μL of the drug stock solution (or vehicle) to achieve a working concentration in 4 mL of total volume in the platform was utilized. On day 6, after 24 hours of drug incubation, 6 μL of the drug stock solution (or vehicle) was added to the fresh medium exchange volume (1.2 mL). After 48 hour of drug incubation, on day 7, systems were disassembled to test organ functionality that same day. For mono-culture conditions, surfaces remained in a 12-well plated with 1 mL of the co-culture defined serum-free medium maintained by daily replacement of half volume.
(§2) Seven days after the initiation of the co-culture, viability of each organ chamber, except for neurons, was evaluated through an MTT assay. […] Cell viability was measured at 570 nm in a Synergy HT plate reader and KC4 software. The results were expressed as the percentage of cell survival relative to the control (untreated or incubated with vehicle). The neuronal fraction viability was evaluated through morphological analysis throughout the co-culture experiment as the final coverslips were used for patch-clamp electrophysiology. Phase images (10X) where obtained every day of the co-culture. Neuronal viability was evaluated by cell morphology integrity and by cell count from day 1 to day 14.

neurons [5] = test: Neuronal viability by morphological analysis and cell count in 4-organ system; settings: 4-organ co-culture under flow, serum-free medium, 48 h drug treatment, day 7, vs control, DOX 5 μM, ATR 100 μM, VPA 2 mM, APAP 5 mM, AMAP 5 mM
From the text: as §1, §2

Human Skeletal Myofibers [6] = test: MTT viability of skeletal muscle module in 4-organ system; settings: 4-organ co-culture under flow, serum-free medium, 48 h drug treatment, day 7, vs control, DOX 5 μM, ATR 100 μM, VPA 2 mM, APAP 5 mM, AMAP 5 mM
From the text: as §1, §2

[7] = test system: iPSc differentiated Cardiomyocytes; test: Cardiac beating frequency from video recordings; type: cell-based, human; settings: 4-organ co-culture under flow, 48 h drug treatment, day 7, vs control; for Cardiomyocyte beating rate (beat frequency), decrease: DOX 5 μM, AMAP 5 mM; for Cardiomyocyte beating rate (beat frequency), increase: ATR 100 μM, VPA 2 mM, APAP 5 mM
Description: Seven or fourteen days after the co-culture, cardiac beating frequency was quantified from video recordings of three different areas of each of the cMEA surfaces, where the cardiomyocytes culture where located. Surfaces were located in a 37 °C bath platform containing co-culture medium with 50 mM HEPES on the stage of a Zeiss Axioscope 2FS upright microscope. Beats were counted in a period of 10 s, and the average number of 3 values was obtained. Drug effect was plotted as percentage of change compared to the control conditions.

Liver = test system: Liver; parameters: method as in Literature; settings: general toxic effects reported in the literature; ref Literature; cited from earlier work
HepG2/C3A [8] = test: Human Serum Albumin quantification (ELISA), liver fraction of 4-organ system; type: cell-based; settings: 4-organ co-culture under flow, 48 h drug treatment, vs control, DOX 5 μM, ATR 100 μM, VPA 2 mM, APAP 5 mM, AMAP 5 mM
Description: Human Serum Albumin (HSA) production from the liver fraction was tracked throughout the co-culture, by measuring the HSA concentration in the supernatant of the culture as it represents liver protein anabolism. Samples were collected from the exchanged medium (1.2 mL) and stored at −20 °C until analysis. One freeze-thaw cycle occurred before samples were analyzed following manufacturers’ instructions provided in the ELISA Starter Accessory Kit (Bethyl Laboratories Inc, Cat #: E101). Samples were diluted as necessary in sample conjugate/diluent buffer to ensure readings measured within the range of the standard curve. The standard curve was prepared by serial dilutions of human reference serum in sample conjugate/diluent buffer (0–1600 ng/ml).
Final HSA concentrations were calculated in an excel file by first removing the average OD reading measured for blanks from average sample and standard OD readings. Concentrations of standard dilutions were plotted against average OD values measured in XY scatter plots. A standard curve was created by adding an order of 2 polynomial trendline to XY scatter plots and selecting the option to display the equation of the trendline, as well as the R^2 value, on each scatter plot (for ease of analysis HSA sigmoidal curves were split into 3 standard curves with HSA concentration ranges of 0–200 ng/ml, 200–800 ng/ml and […]). Quadratic equations were rearranged to make X (sample HSA concentration) the unknown variant. Y values (OD values) and a/b/c constants generated from trendline equations were inputted into rearranged quadratic equations per assay. HSA concentrations calculated were corrected accordingly for any differences in culture final volumes, sample dilutions during assays and cells number.

Human Skeletal Myofibers [9] = test: Myotube stimulated contraction (binary: contracting or not); type: cell-based; settings: 4-organ co-culture under flow, 48 h drug treatment, day 7, broad-field electrical stimulation, DOX 5 μM, ATR 100 μM, VPA 2 mM, APAP 5 mM, AMAP 5 mM
Description: Myotube contraction in coverslips was evaluated after the co-culture was finalized. Individual surfaces were evaluated as previously reported in the group. Drugs effects were quantify in a binary code mode, cells were or were not contracting.

Cardiomyocytes = test system: Cardiomyocytes; parameters: method as in Literature; settings: general toxic effects reported in the literature; ref Literature; cited from earlier work
[10] = test system: iPSc differentiated Cardiomyocytes; test: MTT viability of cardiac module in 4-organ system; settings: 4-organ co-culture under flow, serum-free medium, 48 h drug treatment, day 7, vs control, DOX 5 μM, ATR 100 μM, VPA 2 mM, APAP 5 mM, AMAP 5 mM
From the text: as §1, §2

Muscle = test system: Muscle; parameters: method as in Literature; settings: general toxic effects reported in the literature; ref Literature; cited from earlier work
[11] = therapeutic dosages; cited from earlier work
[12] = cited from earlier work

## CC(=O)Nc1cccc(O)c1 [N-Acetyl-m-aminophenol]
HepG2/C3A [1]; DOX 5 μM, ATR 100 μM, APAP 5 mM, AMAP 5 mM
  Urea production, increase: 138 ± 19%
Neurons [2]
  Neuronal repetitive and spontaneous firing ability: conserved
  Neuronal electrophysiology, overall effect: Normal electrophysiology
Neurons [2]; listed as AMAP
  Neuronal electrophysiology, overall effect: no significant changes compared to the control
Neurons [3]
  Drug effects on cell functionality, Neurons, Literature: Toxicity not reported
  Drug effects on cell viability, Neurons, Literature: Toxicity not reported
HepG2/C3A [4]
  Liver (hepatocyte) cell viability, loss: Toxicity not observed
HepG2/C3A [4]; listed as AMAP
  Liver (hepatocyte) cell viability, loss: No significant effects
Neurons [5]
  Neuronal cell viability, loss (cell loss by morphology/cell count): Toxicity not observed, some increase in cell numbers but not significant
Neurons [5]; listed as AMAP
  Neuronal cell viability, loss (cell loss by morphology/cell count): No significant effects; also recorded: some increase in cell numbers; also recorded: no change in viability
Human Skeletal Myofibers [6]
  Skeletal muscle viability, loss: Toxicity not observed
Human Skeletal Myofibers [6]; listed as AMAP
  Skeletal muscle viability, loss: not affected
[7]
  Cardiomyocyte beating rate (beat frequency), decrease: 25 ± 4% decrease in beating rate
[7]; listed as AMAP
  Cardiomyocyte beating rate (beat frequency), decrease: 25 ± 4% and 30%
Liver
  Drug effects on cell functionality, Liver, Literature: Toxicity not reported
  Drug effects on cell viability, Liver, Literature: Toxicity not reported
HepG2/C3A [8]
  HSA (albumin) production, increase: 23 ± 4%
Human Skeletal Myofibers [9]
  Skeletal muscle loss of contractile ability (share of cultures in which contraction ceased): No loss in contractile ability
Human Skeletal Myofibers [9]; listed as AMAP
  Skeletal muscle loss of contractile ability (share of cultures in which contraction ceased): not affected
Cardiomyocytes
  Drug effects on cell functionality, Cardiomyocytes, Literature: Toxicity not reported
  Drug effects on cell viability, Cardiomyocytes, Literature: Toxicity not reported
[10]
  Cardiomyocyte viability, loss: 28 ± 6% loss
[10]; listed as AMAP
  Cardiomyocyte viability, loss: 28 ± 6% and 30%
Muscle
  Drug effects on cell functionality, Muscle, Literature: Toxicity not reported
  Drug effects on cell viability, Muscle, Literature: Toxicity not reported

## CCCC(CCC)C(=O)O [Valproic Acid, Valproic acid]
[11]
  Concentration detected in patient plasma: 300 to 700 µM
HepG2/C3A [1]; VPA 2 mM
  Urea production, decrease: 13 ± 2%
Neurons [2]
  Neuronal electrophysiology, overall effect: Normal electrophysiology
Neurons [2]; listed as VPA
  Neuronal electrophysiology, overall effect: no changes compared to the control; also recorded: maintained the electrophysiological parameters
Neurons [3]
  Drug effects on cell functionality, Neurons, Literature: Toxicity not reported
  Drug effects on cell viability, Neurons, Literature: Toxicity not reported
[7]
  Cardiomyocyte beating rate (beat frequency), increase: 38 ± 18% increase in beating frequency
[7]; listed as VPA
  Cardiomyocyte beating rate (beat frequency), increase: 38 ± 18%
HepG2/C3A [8]
  HSA (albumin) production, increase: not affected
HepG2/C3A [8]; listed as VPA
  HSA (albumin) production, increase: no changes
[12]
  Concentration known to be cytotoxic in vitro: around 2 mM
Cardiomyocytes
  Drug effects on cell functionality, Cardiomyocytes, Literature: Cardio-protective effect
  Drug effects on cell viability, Cardiomyocytes, Literature: Cardio-protective effect
Muscle
  Drug effects on cell functionality, Muscle, Literature: Toxicity not reported
  Drug effects on cell viability, Muscle, Literature: Toxicity not reported
